From patent US20250127800A1, “PYRIMIDINE OR PYRIDINE DERIVATIVE AND MEDICINAL USE THEREOF” (SIGNET THERAPEUTICS INC., priority 2021, published 2025)

Legend:
NUGC4 cells = experiment: Cell proliferation inhibition, NUGC4 (CELL TITER-GLO); type: cell-based; details: Homo sapiens, NUGC-4, 96 h; NUGC4, 4 days
Experimental: • a. SNU-668 cells (catalog number: 00668, KCLB) or NUGC4 cells (catalog number: 0834, JCRB) were allowed to grow to 70%-80% confluence, the supernatant of the culture medium was pipetitted off, rinsed once with PBS and then pipetitted off; • b. To a 10 cm dish was added 1 mL of 0.25% trypsin, votexed to homogenity and then place into incubator for digestion for 2-3 min; • c. The culture dish is removed from the incubator added with 2-3 mL complete culture medium to terminate the digestion, pipetitted into a 15 mL centrifuge tube, and then centrifuged in centrifuge at 1000 rpm for 5 minutes; • d. The supernatant was pipetitted off, and the cells were resuspended in 1 mL of complete culture medium, and then counted; • e. 1000 cells were plated into each well of 96-well plate, and then cultured overnight in a cell incubator, 2) Cell Administration with Compounds • a. Compounds to be tested were dissolved and votexed to homogeneity; • b. Each compound was serielly diluted in 1:3 ratio from 1 mM stock solution to 9 gradient concentrations; • c. The plate seeded with cells was taken out from the incubator, pipetitted off culture medium, and then added slowly in each well with 100 μL fresh culture medium by multi-channel pipette. Wells are labeled by corresponding compounds and concentrations, and then gently added with 100 μL compound-containing culture medium along the well wall by multi-channel pipette; • d. After the addition to all wells, the plate was gently shaken to allow homogeneous spread of the compound, and then put back to the incubator, with time recorded;
4 days after the addition of compounds, the culture medium was removed and mixed at 100 μL from each well with cell titer-glo testing liquid in 1:1 ratio. The mixture was incubated with shaking at room temperature for 10 min and then counted with Plate reader.

FAK = FAK (Homo sapiens (Human), UniProt Q05397); experiment: In vitro enzymatic inhibitory activity, FAK kinase (HTRF KinEASE-TK); details: FAK kinase, enzyme pre-incubation 15 minutes at 25° C.
[1] = In vivo pharmacokinetic evaluation in SD rats, gavage; details: rat, plasma, po, male SD rats, 5 mg/kg
Experimental: Three male SD rats were administered with compounds in a single dose of 5 mg/kg or 3 mg/kg by gavage, and blood samples were collected before administration and at 0.25, 0.5, 1, 2, 4, 6, 8, and 24 h after administration.
Preparation of solutions of compounds to be dosed at 5 mg/kg: 5.5 mg compound (converted based on purity) was accurately weighed and added to 0.55 mL of DMSO. Clear solutions were obtained after stirring and sonication. 0.5 mL of each of the above solutions was added with 1 mL of Solutol, stirred for 1 minute; and then added with 8.5 mL of physiological saline and stirred for 1 minute, to obtain a clear solution at 0.5 mg/mL concentration.
Preparation of a solution of compounds to be dosed at 3 mg/kg: 3.6 mg compound (converted according to purity) was accurately weighed and added to 0.6 mL of DMSO. Clear solutions were obtained after stirring and sonication. 0.5 mL of each of the above solutions was added with 1 mL of Solutol and stirred for 1 minute; and then added with 8.5 mL of physiological saline and stirred for 1 minute, to obtain a clear solution at 0.3 mg/mL concentration.
Rats were administered the formulations prepared in step 2 by gavage at a dose of 10 mL/kg. The rats were fasted overnight before the administration and resumed feeding 4 hours after administration. Throughout the entire experiment, the animals were free to access drinking water.
The plasma concentration was measured using LC-MS/MS method.

FAK, sequence (Q05397 whole entry, species assumed): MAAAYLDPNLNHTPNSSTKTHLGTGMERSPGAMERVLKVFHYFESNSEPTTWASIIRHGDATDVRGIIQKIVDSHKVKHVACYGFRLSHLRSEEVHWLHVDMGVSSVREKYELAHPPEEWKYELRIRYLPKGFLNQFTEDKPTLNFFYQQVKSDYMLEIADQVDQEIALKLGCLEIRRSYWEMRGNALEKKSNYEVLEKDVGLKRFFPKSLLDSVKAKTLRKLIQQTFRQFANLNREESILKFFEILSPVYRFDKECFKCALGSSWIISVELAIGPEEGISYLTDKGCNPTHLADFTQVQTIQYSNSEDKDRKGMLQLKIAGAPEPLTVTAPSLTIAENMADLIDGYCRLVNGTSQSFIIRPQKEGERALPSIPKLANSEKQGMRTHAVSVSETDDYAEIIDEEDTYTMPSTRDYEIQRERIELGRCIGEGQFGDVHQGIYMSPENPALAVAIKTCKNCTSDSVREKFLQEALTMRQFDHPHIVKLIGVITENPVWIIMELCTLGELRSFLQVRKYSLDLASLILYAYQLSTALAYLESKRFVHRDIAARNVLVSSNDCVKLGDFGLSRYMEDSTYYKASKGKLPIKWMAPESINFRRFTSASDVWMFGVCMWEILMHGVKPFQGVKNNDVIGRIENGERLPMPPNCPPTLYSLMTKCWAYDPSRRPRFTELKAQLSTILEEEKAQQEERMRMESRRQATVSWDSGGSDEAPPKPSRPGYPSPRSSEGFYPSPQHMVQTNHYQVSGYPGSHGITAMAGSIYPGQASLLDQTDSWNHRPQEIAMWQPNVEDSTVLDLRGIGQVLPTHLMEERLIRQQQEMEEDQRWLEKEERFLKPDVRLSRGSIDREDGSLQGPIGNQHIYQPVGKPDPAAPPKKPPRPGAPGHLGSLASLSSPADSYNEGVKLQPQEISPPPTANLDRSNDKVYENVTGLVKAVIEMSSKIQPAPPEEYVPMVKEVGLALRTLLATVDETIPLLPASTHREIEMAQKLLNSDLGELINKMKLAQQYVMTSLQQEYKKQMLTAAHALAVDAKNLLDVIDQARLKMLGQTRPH

SMILES	IC50 (FAK) [nM]	IC50 (NUGC4 cells) [nM]	other results
C=CC(=O)N1CCC(CNC(=O)c2ccc(Nc3ncc(C(F)(F)F)c(Nc4ccccc4P(C)(C)=O)n3)c(OC)c2)CC1 [Compound 8, N-((1-acryloylpiperidin-4-yl)methyl)-4-((4-((2-(dimethylphosphoryl)phenyl)amino)-5-(trifluoromethyl)pyrimidin-2-yl)amino)-3-methoxybenzamide]	5.79		
C=CC(=O)N1CCCC(c2cccc(NCc3ccc(Nc4ncc(C(F)(F)F)c(Nc5ccccc5P(C)(C)=O)n4)cc3)c2)C1 (centres unmarked) [Compound 10, 1-(3-(3-((4-((4-((2-(dimethylphosphoryl)phenyl)amino)-5-(trifluoromethyl)pyrimidin-2-yl)amino)benzyl)amino)phenyl)piperidin-1-yl)prop-2-en-1-one]	15.8		
C=C(F)C(=O)N1CCCC(c2cccc(NCc3ccc(Nc4ncc(C(F)(F)F)c(Nc5ccccc5C(=O)NC)n4)cc3)c2)C1 (centres unmarked) [Compound 33, 2-((2-((4-(((3-(1-(2-fluoroacryloyl)piperidin-3-yl)phenyl)amino)methyl)phenyl)amino)-5-(trifluoromethyl)pyrimidin-4-yl)amino)-N-methylbenzamide]		20	
C=C(C)C(=O)N1CCCC(c2cccc(NCc3ccc(Nc4ncc(C(F)(F)F)c(Nc5ccccc5C(=O)NC)n4)cc3)c2)C1 (centres unmarked) [Compound 24, 2-((2-((4-(((3-(1-methylacryloylpiperidin-3-yl)phenyl)amino)methyl)phenyl)amino)-5-(trifluoromethyl)pyrimidin-4-yl)amino)-N-methylbenzamide]		20	
C=CC(=O)N1CCC(NC(=O)c2ccc(Nc3ncc(C(F)(F)F)c(NCc4nccnc4N(C)S(C)(=O)=O)n3)c(OC)c2)CC1 [Compound 1, N-(1-acryloylpiperidin-4-yl)-3-methoxy-4-((4-(((3-(N-methylmethanesulfonylamido)pyrazin-2-yl)methyl)amino)-5-(trifluoromethyl)pyrimidin-2-yl)amino)benzamide]	1.13		

The next lines start with results.

IC50 (FAK) [nM]	SMILES	IC50 (NUGC4 cells) [nM]	other results
3.43	C/C=C/C(=O)N1CCCC(c2cccc(NCc3ccc(Nc4ncc(C(F)(F)F)c(Nc5ccccc5C(=O)NC)n4)cc3)c2)C1 (centres unmarked) [Compound 32, (E)-2-((2-((4-(((3-(1-(but-2-enoyl)piperidin-3-yl)phenyl)amino)methyl)phenyl)amino)-5-(trifluoromethyl)pyrimidin-4-yl)amino)-N-methylbenzamide]	40	
4.36	C=CC(=O)N1CCCC(c2cccc(NCc3ccc(Nc4ncc(C(F)(F)F)c(NCc5nccnc5N(C)S(C)(=O)=O)n4)cc3)c2)C1 (centres unmarked) [Compound 14, N-(3-(((2-((4-(((3-(1-acryloylpiperidin-3-yl)phenyl)amino)methyl)phenyl)amino)-5-(trifluoromethyl)pyrimidin-4-yl)amino)methyl)pyrazin-2-yl)-N-methylmethanesulfonamide]		
4.33	CC#CC(=O)N1CCCC(c2cccc(NCc3ccc(Nc4ncc(C(F)(F)F)c(Nc5ccccc5C(=O)NC)n4)cc3)c2)C1 (centres unmarked) [Compound 21, 2-((2-((4-(((3-(1-(2-butynoyl)piperidin-3-yl)phenyl)amino)methyl)phenyl)amino)-5-(trifluoromethyl)pyrimidin-4-yl)amino)-N-methylbenzamide]	40	
3.58	C=CC(=O)N1CCC(CNC(=O)c2ccc(Nc3ncc(C(F)(F)F)c(Nc4ccccc4P(C)(C)=O)n3)cc2)CC1 [Compound 7, N-((1-acryloylpiperidin-4-yl)methyl)-4-((4-((2-(dimethylphosphoryl)phenyl)amino)-5-(trifluoromethyl)pyrimidin-2-yl)amino)benzamide]		
1.45	C=CC(=O)N1CCC[C@@H](c2cccc(NCc3ccc(Nc4ncc(C(F)(F)F)c(Nc5ccccc5C(=O)NC)n4)cc3)c2)C1 [Compound 35, (S)-2-((2-((4-(((3-(1-acryloylpiperidin-3-yl)phenyl)amino)methyl)phenyl)amino)-5-(trifluoromethyl)pyrimidin-4-yl)amino)-N-methylbenzamide]		AUC(0-inf) [1]: 0.548 µM·h; AUC(0-t) [1]: 0.54 µM·h; Cmax [1]: 130 nM; Tmax [1]: 2.67 h; half-life [1]: 0.96 h
